Source: patent US9505768B2, “Compositions and methods for modulating TLR4” (The Regents of the University of California, priority 2012, dated 2016)
“Also recorded” adds a separate entry of the source. Read-outs that look alike come from different tables or passages of the source.

How the values were obtained:
[1] = biological target: T1, human TLR4 (Homo sapiens, UniProt O00206+Q9Y6Y9); test: Human TLR4 HEK Blue NFκB/SEAP reporter assay; format: cell-based; conditions: for human TLR4, values normalized to Cmpd 1: hTLR4 HEK293 transfectoma, all compounds tested at 10 μM, Cmpd 1 set at 100
T1 construct: host or cells: HEK293 (HEK Blue) cells with NFκB/SEAP reporter
Description: (§1) The above assays were utilized to compare the derivatives of the lead pyrimidoindole for their ability to activate mouse and human TLR4. […] Each cytokine induction curve was first converted to a percent activity curve, and then the AUC of the percent activity curve was calculated. The process of converting to a percent activity curve allowed subtracting background and adjusting for plate-to-plate variation.
(§2) The culture supernatants were harvested after a 20-24 h incubation period. SEAP activity in the supernatants was determined by a colorimetric assay, using either the SEAPorter Assay Kit (Imgenex), with absorbance read at 405 nm, or QuantiBlue (Invivogen), with absorbance read at 630 nm.

[2] = system: mouse bone marrow derived dendritic cells (mBMDC); test: IL-6 induction in mouse bone marrow derived dendritic cells (ELISA); format: cell-based; conditions: relative to Cmpd 1 / within series
Description: as §1
(§3) BMDC were prepared from C57BL/6 mice as described. See e.g., Wu, C. […] BMDC (10^5 cells per well) were plated in 96-well plates in 200 μL of complete RPMI1640 supplemented with 10% fetal calf serum (FCS; Sigma Aldrich), 100 U/mL penicillin, and 100 μg/mL streptomycin (Invitrogen). […] After 18 h incubation, the cell culture supernatants were collected. LPS (purified LPS, Invivogen, San Diego, Calif.) or MPLA (1 μg/mL synthetic MPLA, Invivogen, San Diego, Calif.) were used as positive controls. […] The AUC was calculated from BMDC dose-response curves using Prism 5 (GraphPad, San Diego). Each cytokine induction curve was first converted to a percent activity curve, and then the AUC of the percent activity curve was calculated. The process of converting to a percent activity curve allowed subtracting background and adjusting for plate-to-plate variation.

[3] = biological target: T2, mouse TLR4 (Mus musculus, UniProt Q9JHF9+Q9QUK6); test: Murine TLR4 HEK Blue NFκB/SEAP reporter assay; format: cell-based; conditions: for mouse TLR4, area under curve (AUC) values normalized to Cmpd 1: mTLR4 HEK transfectoma, 312 nM to 10 μM, Cmpd 1 set at 100
T2 construct: host or cells: HEK293 (HEK Blue) cells with NFκB/SEAP reporter
T2 sequence (Q9QUK6 26-835): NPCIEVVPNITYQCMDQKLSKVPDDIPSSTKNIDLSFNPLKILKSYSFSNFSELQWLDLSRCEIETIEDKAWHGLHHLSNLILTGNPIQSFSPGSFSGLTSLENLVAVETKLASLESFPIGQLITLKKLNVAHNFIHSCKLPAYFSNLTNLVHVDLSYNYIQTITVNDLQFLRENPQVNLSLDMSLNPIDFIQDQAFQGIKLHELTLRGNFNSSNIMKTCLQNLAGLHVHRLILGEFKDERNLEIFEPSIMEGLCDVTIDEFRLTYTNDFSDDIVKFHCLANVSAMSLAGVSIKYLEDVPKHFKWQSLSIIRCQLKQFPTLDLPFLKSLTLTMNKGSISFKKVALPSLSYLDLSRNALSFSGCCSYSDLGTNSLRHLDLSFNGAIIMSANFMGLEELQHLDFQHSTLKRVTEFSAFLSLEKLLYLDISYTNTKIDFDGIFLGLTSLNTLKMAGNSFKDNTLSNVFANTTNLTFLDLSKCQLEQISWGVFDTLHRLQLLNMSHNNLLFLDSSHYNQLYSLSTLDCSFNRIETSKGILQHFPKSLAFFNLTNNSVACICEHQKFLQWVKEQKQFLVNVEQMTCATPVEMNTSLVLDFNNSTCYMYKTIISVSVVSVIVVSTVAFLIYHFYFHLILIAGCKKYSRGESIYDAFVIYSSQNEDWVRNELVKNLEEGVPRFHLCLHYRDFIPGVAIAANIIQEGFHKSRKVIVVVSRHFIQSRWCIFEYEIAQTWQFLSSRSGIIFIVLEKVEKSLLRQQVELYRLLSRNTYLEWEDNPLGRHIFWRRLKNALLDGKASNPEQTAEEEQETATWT
T2 sequence (Q9JHF9 19-160): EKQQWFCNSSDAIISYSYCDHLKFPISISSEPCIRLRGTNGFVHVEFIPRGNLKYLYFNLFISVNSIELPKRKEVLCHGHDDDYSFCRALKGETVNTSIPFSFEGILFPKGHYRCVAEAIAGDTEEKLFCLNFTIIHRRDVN
Description: as §1, §2

[4] = system: mouse bone marrow derived dendritic cells (mBMDC); test: IP-10 induction in mBMDC (ELISA), surrogate marker of type I IFN; format: cell-based; conditions: relative to Cmpd 1
Description: In addition to the production of inflammatory cytokines (IL-6, IL-12, TNFα, etc.) mediated by NFκB activation, TLR4 signaling can result in the production of type I interferons, a feature that is not only important for activation of dendritic cells leading to good adjuvant activity, but would also be important for rapid defense against a variety of pathogens, particularly viruses. […] To determine the relative ability of all compounds to induce the production of type 1 IFN, each was evaluated in mouse bone marrow derived dendritic cells as shown in Tables 1-3.
as §3
In addition, the levels of IP-10, a surrogate marker of type I IFN, in the supernatants were determined by ELISA (R&D Systems, Minneapolis, Minn.).

[5] = system: mouse bone marrow derived dendritic cells (mBMDC); test: as above; format: cell-based; conditions: 5 μM overnight, vs C57BL/6 WT
[6] = system: C57BL/6 mice; test: Protection from LPS/galactosamine-induced lethal liver injury; format: in vivo, mouse; conditions: for Survival: i.p. pretreatment (500 nmol Cmpd, 40 μg MPLA), next day LPS 0.2 μg + galactosamine 12 mg per animal, survivors/treated
Description: FIGS. 11A-11B depict that administration of Cmpd 42 and Cmpd 33 protects hosts from LPS-induced lethal liver injury. FIG. 11A: Schematic showing that C57BL/6 mice were intraperitoneously injected with 500 nmol Cmpd. 42 (n=11) or Cmpd 33 (n=11). 40 μg MPLA (n=9) and vehicle (n=9) were used as positive and negative controls, respectively. Next day, mice were challenged with LPS (0.2 μg/animal) and galactosamine (12 mg/animal). FIG. 11B: Histogram showing results of sera collected 1.5 h post challenge and measured for TNFα. *:p<0.05 compared to vehicle treated mice.
Lipopolysaccharide (LPS), a TLR4 ligand, causes severe lethal liver injury when administered with galactosamine. Pretreatment of mice with MPLA is known to improve the survival in this model. To study whether Cmpd 42 and Cmpd 33 are able to act as immunomodulatory agents similar to MPLA, the mice were treated with Cmpd 42 or Cmpd 33 and challenged with LPS/galatosamine the next day, as depicted in FIG. 11A. Over 80% of Cmpd 42 and 100% of Cmpd 33-treated mice survived.

[7] = system: mouse bone marrow derived dendritic cells (mBMDC); test: IL-6 induction in mouse bone marrow derived dendritic cells (ELISA); format: cell-based; conditions: 5 μM overnight, vs C57BL/6 WT
[8] = system: C57BL/6 mice

T1 sequence (O00206 24-839): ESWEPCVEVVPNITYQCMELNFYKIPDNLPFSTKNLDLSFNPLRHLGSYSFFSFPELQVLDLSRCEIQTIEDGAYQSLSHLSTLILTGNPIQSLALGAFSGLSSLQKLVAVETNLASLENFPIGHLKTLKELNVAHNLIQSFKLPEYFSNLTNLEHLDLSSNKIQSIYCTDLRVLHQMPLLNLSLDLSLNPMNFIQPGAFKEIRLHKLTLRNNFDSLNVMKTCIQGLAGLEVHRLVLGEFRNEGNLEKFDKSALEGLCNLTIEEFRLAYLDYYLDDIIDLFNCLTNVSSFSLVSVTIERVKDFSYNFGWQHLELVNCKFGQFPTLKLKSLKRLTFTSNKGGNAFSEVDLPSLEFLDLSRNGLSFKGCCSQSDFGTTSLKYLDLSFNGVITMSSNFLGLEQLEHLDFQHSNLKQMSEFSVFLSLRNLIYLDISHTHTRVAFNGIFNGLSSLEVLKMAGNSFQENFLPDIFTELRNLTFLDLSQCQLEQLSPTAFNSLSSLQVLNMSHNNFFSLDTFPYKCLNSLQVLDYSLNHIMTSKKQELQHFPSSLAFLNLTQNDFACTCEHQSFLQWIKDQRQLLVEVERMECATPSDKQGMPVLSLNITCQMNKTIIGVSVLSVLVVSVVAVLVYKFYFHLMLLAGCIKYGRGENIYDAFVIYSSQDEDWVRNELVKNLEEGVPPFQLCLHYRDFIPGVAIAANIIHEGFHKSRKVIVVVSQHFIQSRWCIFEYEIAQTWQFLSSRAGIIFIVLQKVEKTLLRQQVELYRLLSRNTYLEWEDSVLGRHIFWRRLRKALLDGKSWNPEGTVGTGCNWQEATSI
T1 sequence (Q9Y6Y9 19-160): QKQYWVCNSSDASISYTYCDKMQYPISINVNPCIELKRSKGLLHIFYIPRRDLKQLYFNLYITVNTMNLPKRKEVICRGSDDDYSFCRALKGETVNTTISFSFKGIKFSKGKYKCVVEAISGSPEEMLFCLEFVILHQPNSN

human TLR4, values normalized to Cmpd 1 [1] | mouse TLR4, area under curve (AUC) values normalized to Cmpd 1 [3] | Compound | IL-6 activity in mBMDC (in words) [2] | IP-10 production in mBMDC (in words) [4] | other results
17 | 29 | CCC(C)CCNC(=O)CSc1nc2c([nH]c3ccccc32)c(=O)n1-c1ccccc1 (stereo not drawn) [Compound 29, N-(3-methylpentyl)-2-((4-oxo-3-phenyl-4,5-dihydro-3H-pyrimido[5,4-b]indol-2-yl)thio)acetamide] | diminished IL-6 release | nearly equivalent induction of IP-10 | 
13 | 17 | CCCC(C)NC(=O)CSc1nc2c([nH]c3ccccc32)c(=O)n1-c1ccccc1 (stereo not drawn) [Compound 30, 2-((4-oxo-3-phenyl-4,5-dihydro-3H-pyrimido[5,4-b]indol-2-yl)thio)-N-(pentan-2-yl)acetamide] | diminished IL-6 release | nearly equivalent induction of IP-10 | 
64 | 95 | O=C(CSc1nc2c([nH]c3ccccc32)c(=O)n1-c1ccccc1)NC1CCCCCCC1 [Compound 10, N-cyclooctyl-2-((4-oxo-3-phenyl-4,5-dihydro-3H-pyrimido[5,4-b]indol-2-yl)thio)acetamide] | the most active; also recorded: high IL-6 | high IP-10 production | 
100 | 99 | O=C(CSc1nc2c([nH]c3ccccc32)c(=O)n1-c1ccccc1)NC1CCCCCC1 [Compound 9, N-Cycloheptyl-2-((4-oxo-3-phenyl-4,5-dihydro-3H-pyrimido[5,4-b]indol-2-yl)thio)acetamide] | the most active; also recorded: high IL-6 | high IP-10 production | 
38 | 56 | CC(C)CCNC(=O)CSc1nc2c([nH]c3ccccc32)c(=O)n1-c1ccccc1 [Compound 27, N-isopentyl-2-((4-oxo-3-phenyl-4,5-dihydro-3H-pyrimido[5,4-b]indol-2-yl)thio)acetamide] | somewhat less active |  | 
21 | 24 | CC(C)CNC(=O)CSc1nc2c([nH]c3ccccc32)c(=O)n1-c1ccccc1 [Compound 26, N-isobutyl-2-((4-oxo-3-phenyl-4,5-dihydro-3H-pyrimido[5,4-b]indol-2-yl)thio)acetamide] | somewhat less active |  | 
19 | 9 | COC(=O)CCCn1c2ccccc2c2nc(SCC(=O)NC3CCCCC3)n(-c3ccccc3)c(=O)c21 [Compound 44, Methyl 4-(2-((2-(cyclohexylamino)-2-oxoethyl)thio)-4-oxo-3-phenyl-3H-pyrimido[5,4-b]indol-5(4H)-yl)butanoate] | very little IL-6 |  | human TLR4 reporter cell activation (in words) [1]: good activity; mouse TLR4 reporter cell activation (in words) [3]: good activity
 |  | monophosphoryl lipid A [MPLA, reference compound] |  |  | Survival [6]: 8/9; Survival ([8]; i.p. 500 nmol Cmpd 42, MPL 40 μg or LPS 0.2 μg mixed with galactosamine 12 mg, survivors/treated): 0/5; Serum TNFα levels ([8]; with galactosamine 12 mg/animal, up to 15 μmol/animal Cmpd 33, 1 μmol/animal Cmpd 42, 10 μg/animal MPLA): induced detectable TNFα

Compound | human TLR4, values normalized to Cmpd 1 [1] | mouse TLR4, area under curve (AUC) values normalized to Cmpd 1 [3] | IL-6 activity in mBMDC (in words) [2] | IP-10 production in mBMDC (in words) [4] | other results
O=C(CSc1nc2c([nH]c3ccccc32)c(=O)n1-c1ccccc1)NC1CCC1 [Compound 12, N-cyclobutyl-2-((4-oxo-3-phenyl-4,5-dihydro-3H-pyrimido[5,4-b]indol-2-yl)thio)acetamide] | 32 | 18 | diminished IL-6 release | nearly equivalent induction of IP-10 | 
O=C(CSc1nc2c([nH]c3ccccc32)c(=O)n1-c1ccccc1)NCC1CCCO1 (stereo not drawn) [Compound 33, 2-((4-oxo-3-phenyl-4,5-dihydro-3H-pyrimido[5,4-b]indol-2-yl)thio)-N-((tetrahydrofuran-2-yl)methyl)acetamide] | 13 | 21 | diminished IL-6 release | nearly equivalent induction of IP-10 | IP-10 induction in LPS mutant (Trif lps/lps) cells [5]: significantly decreased; serum TNFα ([6]; […] post challenge, compared to vehicle treated mice): significantly lower level; mice survived ([6]; i.p. pretreatment 500 nmol, LPS/galactosamine challenge next day): 100%; Survival [6]: 11/11; IL-6 secretion in MyD88 null dendritic cells [7]: significantly impaired; maximum tolerated dose relative to MPLA ([8]; liver injury model with galactosamine): over 100 times
CC(C)(C)CCNC(=O)CSc1nc2c([nH]c3ccccc32)c(=O)n1-c1ccccc1 [Compound 28, N-(3,3-dimethylbutyl)-2-((4-oxo-3-phenyl-4,5-dihydro-3H-pyrimido[5,4-b]indol-2-yl)thio)acetamide] | 72 | 126 | among the most active of the alkyls; also recorded: high IL-6 | high IP-10 production | 
CCCCNC(=O)CSc1nc2c([nH]c3ccccc32)c(=O)n1-c1ccccc1 [Compound 23, N-butyl-2-((4-oxo-3-phenyl-4,5-dihydro-3H-pyrimido[5,4-b]indol-2-yl)thio)acetamide] | 32 | 31 | somewhat less active |  | 
